Laboratory results reported in ChEMBL document CHEMBL1201862, “PubChem BioAssay data set” (2004).
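Each compound was tested at five concentrations against cells in 96-well plates for 48 hours. GI50 marks 50% less growth.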 Active and inactive are the calls of the source. Cut-off read from the data, not from the text of the source: active = GI50 up to about 1.1 µM and inactive = higher.

How the values were obtained:
Experiment in all cases: NCI-60 cell line screen, 48 h
A498 = system: A498
A549 = system: A549
BT-549 = system: BT-549
EKVX = system: EKVX
K562 = system: K562
KM12 = system: KM12
M14 = system: M14
MOLT-4 = system: MOLT-4
OVCAR-4 = system: OVCAR-4
RPMI-8226 = system: RPMI-8226
RXF 393 = system: RXF 393
SNB-75 = system: SNB-75
T47D = system: T47D
UACC-257 = system: UACC-257
UACC-62 = system: UACC-62
UO-31 = system: UO-31
HT-29 = system: HT-29
Hs-578T = system: Hs-578T
MDA-N = system: MDA-N
NCI-H522 = system: NCI-H522

Measured: GI50

CCOC(=O)c1cn(C)c(=S)n2c1nc1ccccc12
inactive: A498 22.3 µM | A549 62.1 µM | BT-549 97.3 µM | EKVX > 100 µM | K562 > 100 µM | KM12 98.9 µM | M14 > 100 µM | MOLT-4 95.7 µM | OVCAR-4 34.8 µM | RPMI-8226 30.9 µM | RXF 393 > 100 µM | SNB-75 > 100 µM | T47D > 100 µM | UACC-257 > 100 µM | UACC-62 21.8 µM | UO-31 4.73 µM

O=C1C=C(NCCc2cc(Br)c(O)c(Br)c2)C(=O)c2[nH]cnc21
inactive: A549 32 µM | EKVX 96.2 µM | HT-29 26.9 µM | Hs-578T 7.35 µM | K562 14.9 µM | KM12 48.5 µM | M14 24.6 µM | MDA-N 18.6 µM | MOLT-4 > 10 µM | NCI-H522 21.2 µM | OVCAR-4 19.1 µM | RPMI-8226 > 10 µM | RXF 393 19.5 µM | SNB-75 21.9 µM | T47D 30.3 µM | UACC-257 5.6 µM | UACC-62 19.5 µM | UO-31 75 µM

CCOC(=O)NC(Nc1ccc(S(=O)(=O)Nc2ccc(OC)nn2)cc1)(C(F)(F)F)C(F)(F)F
inactive: A498 26.3 µM | A549 35.3 µM | EKVX 37 µM | HT-29 39.1 µM | Hs-578T 35.2 µM | K562 32.2 µM | KM12 30.8 µM | M14 18 µM | MDA-N 42 µM | MOLT-4 15.8 µM | OVCAR-4 26.7 µM | RPMI-8226 20.6 µM | RXF 393 18.2 µM | SNB-75 26.8 µM | T47D > 100 µM | UACC-257 33.1 µM | UACC-62 45 µM | UO-31 > 100 µM

C[C@@H]1C[C@@H](O)[C@@]2(O)C13CC(=O)OC(C3)[C@@H](C)[C@@]2(C)CO (stereo partly drawn)
inactive: A498 > 100 µM | A549 > 100 µM | EKVX > 100 µM | HT-29 > 100 µM | Hs-578T > 100 µM | K562 > 100 µM | KM12 > 100 µM | M14 > 100 µM | MDA-N > 100 µM | MOLT-4 > 100 µM | NCI-H522 > 100 µM | OVCAR-4 > 100 µM | RPMI-8226 > 100 µM | RXF 393 > 100 µM | T47D > 100 µM | UACC-257 > 100 µM | UACC-62 > 100 µM | UO-31 > 100 µM

O=C(CCO)OCCCCCC/C=C\CCCCCC/C=C\CCCCCCCCOC(=O)CCO
inactive: A498 23.3 µM | A549 15.9 µM | BT-549 19 µM | EKVX 18.3 µM | HT-29 17.7 µM | K562 15.8 µM | KM12 19.1 µM | M14 17.1 µM | MDA-N 17.8 µM | MOLT-4 14.6 µM | NCI-H522 16.5 µM | OVCAR-4 25.3 µM | RXF 393 18.9 µM | SNB-75 19.8 µM | T47D 17.1 µM | UACC-257 17.2 µM | UACC-62 16.3 µM | UO-31 18.6 µM

COc1cccc2c1OCC1Cc3ccccc3OC21 (stereo not drawn)
inactive: A498 99.1 µM | A549 35.1 µM | BT-549 19.1 µM | EKVX 73.3 µM | HT-29 57.4 µM | K562 61.1 µM | KM12 42.8 µM | M14 44 µM | MDA-N 25.4 µM | MOLT-4 28.8 µM | NCI-H522 > 100 µM | RPMI-8226 47.6 µM | T47D 35.2 µM | UACC-257 24.4 µM | UACC-62 45.4 µM | UO-31 35.2 µM

Cc1cc(-c2c(Br)cc(C(=O)O)n2C)on1
inactive: A498 > 100 µM | A549 > 100 µM | BT-549 > 100 µM | EKVX > 100 µM | HT-29 > 100 µM | K562 > 100 µM | KM12 > 100 µM | M14 > 100 µM | MDA-N > 100 µM | MOLT-4 > 100 µM | NCI-H522 > 100 µM | OVCAR-4 > 100 µM | RPMI-8226 > 100 µM | SNB-75 > 100 µM | T47D > 100 µM | UACC-257 > 100 µM | UACC-62 > 100 µM | UO-31 > 100 µM

CCOC(=O)[C@@]12C[C@](/C=C/OC)(O[Si](C)(C)C)[C@@]13c1cc(OC)c(OC)cc1CCN3C(=O)C2O (stereo partly drawn)
inactive: A498 > 100 µM | A549 > 100 µM | EKVX > 100 µM | HT-29 > 100 µM | Hs-578T 5.98 µM | K562 > 100 µM | KM12 > 100 µM | M14 > 100 µM | MDA-N > 100 µM | MOLT-4 > 100 µM | OVCAR-4 > 100 µM | RPMI-8226 > 100 µM | RXF 393 > 100 µM | SNB-75 47.6 µM | T47D > 100 µM | UACC-257 > 100 µM | UACC-62 46.9 µM | UO-31 > 100 µM

CO[C@]12CC(=O)C3(C(C[C@H]4CC5CC=C6C[C@@H](OC(C)=O)CC[C@]6(OC(C)=O)C5C[C@@]43C)C1)C1C[C@H]3[C@@H]4CC=C5C[C@@H](OC(C)=O)CC[C@]5(OC(C)=O)[C@H]4CC[C@]3(C)C12 (stereo partly drawn)
inactive: A498 27.2 µM | A549 21.9 µM | EKVX 21.4 µM | HT-29 16.1 µM | Hs-578T 32.2 µM | K562 8.85 µM | KM12 11.4 µM | M14 17.5 µM | MDA-N 13.1 µM | MOLT-4 5.58 µM | NCI-H522 14 µM | OVCAR-4 4.5 µM | RPMI-8226 7.18 µM | SNB-75 36.7 µM | T47D 10.9 µM | UACC-257 23.6 µM | UACC-62 20.4 µM | UO-31 16.1 µM

COc1ccc(OC)c(NC2=NCCO2)c1
inactive: A498 > 100 µM | A549 > 100 µM | EKVX > 100 µM | HT-29 62.2 µM | Hs-578T > 100 µM | K562 > 100 µM | KM12 > 100 µM | M14 > 100 µM | MDA-N 45.4 µM | MOLT-4 > 100 µM | NCI-H522 > 100 µM | OVCAR-4 > 100 µM | RPMI-8226 > 100 µM | RXF 393 > 100 µM | SNB-75 > 100 µM | T47D > 100 µM | UACC-257 > 100 µM | UACC-62 > 100 µM | UO-31 > 100 µM

COC(=O)c1ccccc1NC(=O)C(=O)Cc1nc2c3c(ccc2nc1O)C(=O)c1ccccc1C3=O
inactive: A498 35.1 µM | A549 14 µM | EKVX 5.21 µM | HT-29 35.9 µM | K562 23.9 µM | KM12 5.26 µM | M14 12.7 µM | MOLT-4 10.3 µM | NCI-H522 9.14 µM | OVCAR-4 9.06 µM | RPMI-8226 8.2 µM | RXF 393 2.08 µM | SNB-75 28.1 µM | UACC-257 16.3 µM | UACC-62 4.48 µM | UO-31 12.2 µM
